Target: T1, IKKβ (Homo sapiens, UniProt O14920)
T1 construct: purchased Upstate Biotechnology Inc. 14-485
T1 sequence (O14920 1-756): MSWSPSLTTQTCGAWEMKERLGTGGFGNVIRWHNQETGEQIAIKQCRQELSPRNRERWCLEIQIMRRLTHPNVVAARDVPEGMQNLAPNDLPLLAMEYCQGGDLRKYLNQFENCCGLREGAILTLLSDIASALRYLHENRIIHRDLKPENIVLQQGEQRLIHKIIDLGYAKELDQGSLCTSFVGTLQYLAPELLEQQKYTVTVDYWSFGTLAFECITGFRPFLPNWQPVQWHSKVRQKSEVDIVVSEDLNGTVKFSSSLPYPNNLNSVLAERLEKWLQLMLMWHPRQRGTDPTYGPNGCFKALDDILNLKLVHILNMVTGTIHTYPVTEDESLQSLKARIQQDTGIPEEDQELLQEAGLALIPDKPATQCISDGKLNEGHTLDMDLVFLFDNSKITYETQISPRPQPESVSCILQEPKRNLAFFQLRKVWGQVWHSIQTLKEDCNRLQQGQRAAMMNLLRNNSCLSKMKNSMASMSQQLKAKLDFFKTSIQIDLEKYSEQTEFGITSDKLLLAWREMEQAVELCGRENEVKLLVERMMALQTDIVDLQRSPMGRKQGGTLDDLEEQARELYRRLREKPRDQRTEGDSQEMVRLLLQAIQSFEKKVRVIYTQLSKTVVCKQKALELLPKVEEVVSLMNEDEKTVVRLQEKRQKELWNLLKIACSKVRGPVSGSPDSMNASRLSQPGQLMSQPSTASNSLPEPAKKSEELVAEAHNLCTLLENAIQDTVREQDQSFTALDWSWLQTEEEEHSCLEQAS
Test: IKKβ inhibition assay by fluorescence polarization (IMAP kit)
Type: biochemical
Settings: test compound at 1 μM; inhibition rate exceeding 100% is indicated as 100%
Protocol: In order to evaluate IKKβ inhibitory activity of the present compounds, an IKKβ inhibition assay by the fluorescence polarization method was conducted.
The assay was conducted using IMAP™ IKKβ assay kit (manufactured by Molecular Devices Corporation, catalogue No. R8115) or IMAP™ FP Screening Express kit (manufactured by Molecular Devices Corporation, catalogue No. R8127) and in accordance with the protocol attached to each kit. The specific methods are described below. (Preparation of Reagents)
1) Complete Reaction Buffer: a complete reaction buffer was so prepared as to obtain a final concentration of 10 mM Tris-HCL (pH 7.2), 10 mM magnesium chloride, 0.1% bovine serum albumin, and 1 mM dithiothreitol.
2) Substrate Working Solution: 400 nM of a substrate working solution was prepared by dissolving and diluting a fluorescein-labeled IKKβ substrate peptide (amino acid sequence: GRHDSGLDSMK) with the complete reaction buffer.
3) Enzyme Working Solution: 0.2 units/mL of an enzyme working solution was prepared by diluting IKKβ solution (manufactured by Upstate Biotechnology Inc., catalogue No. 14-485) with the complete reaction buffer.
4) ATP Working Solution: 8 μM of an ATP working solution was prepared by dissolving ATP into ultrapure water followed by diluting it with the complete reaction buffer.
5) IMAP binding solution: After diluting an IMAP binding buffer with ultrapure water, an IMAP binding solution was prepared by diluting an IMAP binding reagent with the diluted IMAP binding buffer.
A test compound was dissolved in dimethylsulfoxide followed by diluting it with the complete reaction buffer to prepare 4 μM of a test compound solution.
1) To a 384-well plate, the test compound solution, the enzyme working solution, the substrate working solution, and the ATP working solution were added in an amount of 5 μL per well.
2) Incubation was performed at a room temperature for 60 minutes under light shielding.
3) The IMAP binding solution was added in an amount of 60 μL per well.
4) Incubation was performed at a room temperature for 30 minutes under light shielding.
5) Fluorescence polarization value of each well was measured by using Analyst™ HT (multimode plate reader manufactured by Molecular Devices Corporation) and Criterion Host Software v2.00 (manufactured by Molecular Devices Corporation).
6) Operations were performed in the same manner as in 1) to 5) except for changing the test compound to 0.4% dimethylsulfoxide. The obtained result was designated as a control.
7) Operations were performed in the same manner as in 1) to 5) except for changing the test compound and the enzyme working solution to 0.4% dimethylsulfoxide and the complete reaction buffer, respectively. The obtained result was designated as a background.
An IKKβ inhibition rate (%) was calculated by the following equation.
IKKβ inhibition rate (%)=100×{1−(fluorescence polarization value of test compound−fluorescence polarization value of background)/(fluorescence polarization value of control−fluorescence polarization value of background)}

| inhibition at 1 µM [%] | Compound |
| --- | --- |
| 86 | NC(=O)Nc1c(C(N)=O)c2ccc(Br)cc2n1O [Compound 1-1, 2-Aminocarbonylamino-6-bromo-1-hydroxyindole-3-carboxamide] |
| 55 | Cc1ccc2[nH]c(NC(N)=O)c(C(N)=O)c2c1 [Compound 1-2, 2-Aminocarbonylamino-5-methylindole-3-carboxamide] |
| 80 | CC(=O)Nc1ccc2c(C(N)=O)c(NC(N)=O)[nH]c2c1 [Compound 2-1, 6-Acetylamino-2-aminocarbonylaminoindole-3-carboxamide] |
| 49 | NC(=O)Nc1[nH]c2cc(NC(=O)c3ccccc3)ccc2c1C(N)=O [Compound 2-2, 2-Aminocarbonylamino-6-benzoylaminoindole-3-carboxamide] |
| 56 | NC(=O)Nc1[nH]c2cc(NC(=O)Nc3ccccc3)ccc2c1C(N)=O [Compound 2-3, 2-Aminocarbonylamino-6-(3-phenylureido)indole-3-carboxamide] |
| 95 | CN(C)c1ccc2c(C(N)=O)c(NC(N)=O)[nH]c2c1 [Compound 2-4, 2-Aminocarbonylamino-6-dimethylaminoindole-3-carboxamide] |
| 86 | NC(=O)Nc1[nH]c2cc(N3CCCC3)ccc2c1C(N)=O [Compound 2-5, 2-Aminocarbonylamino-6-(pyrrolidin-1-yl)indole-3-carboxamide] |
| 100 | NC(=O)Nc1[nH]c2cc(-n3cccc3)ccc2c1C(N)=O [Compound 2-9, 2-Aminocarbonylamino-6-(pyrrol-1-yl)indole-3-carboxamide] |
| 75 | NC(=O)Nc1[nH]c2ccccc2c1C(N)=O [Compound 2-10, 2-Aminocarbonylaminoindole-3-carboxamide] |
| 96 | Cc1c(Br)ccc2c(C(N)=O)c(NC(N)=O)[nH]c12 [Compound 2-11, 2-Aminocarbonylamino-6-bromo-7-methylindole-3-carboxamide] |
| 95 | NC(=O)Nc1[nH]c2cc(C(F)(F)F)ccc2c1C(N)=O [Compound 2-16, 2-Aminocarbonylamino-6-trifluoromethylindole-3-carboximide] |
| 100 | COC(=O)c1ccc2c(C(N)=O)c(NC(N)=O)[nH]c2c1 [Compound 2-17, 2-aminocarbonylamino-6-methoxycarbonylindole-3-carboxamide] |
| 100 | NC(=O)Nc1[nH]c2cc(Br)ccc2c1C(N)=O [Compound 3-1, 2-Aminocarbonylamino-6-bromoindole-3-carboxamide] |
| 97 | NC(=O)Nc1[nH]c2cc(-c3ccc(F)cc3)ccc2c1C(N)=O [Compound 4-1, 2-Aminocarbonylamino-6-(4-fluorophenyl)indole-3-carboxamide] |
| 100 | NC(=O)Nc1[nH]c2cc(-c3ccccc3)ccc2c1C(N)=O [Compound 4-2, 2-Aminocarbonylamino-6-phenylindole-3-carboxamide] |
| 98 | COc1cccc(-c2ccc3c(C(N)=O)c(NC(N)=O)[nH]c3c2)c1 [Compound 4-4, 2-Aminocarbonylamino-6-(3-methoxyphenyl)indole-3-carboxamide] |
| 100 | NC(=O)Nc1[nH]c2cc(-c3cccs3)ccc2c1C(N)=O [Compound 4-8, 2-Aminocarbonylamino-6-(thiophen-2-yl)indole-3-carboxamide] |
| 100 | NC(=O)Nc1[nH]c2cc(-c3cccnc3)ccc2c1C(N)=O [Compound 4-9, 2-Aminocarbonylamino-6-(pyridin-3-yl)indole-3-carboxamide] |

| inhibition at 1 µM [%] | Compound |
| --- | --- |
| 100 | NC(=O)Nc1[nH]c2cc(-c3ccccc3F)ccc2c1C(N)=O [Compound 4-10, 2-Aminocarbonylamino-6-(2-fluorophenyl)indole-3-carboxamide] |
| 100 | NC(=O)Nc1[nH]c2cc(-c3cccc(F)c3)ccc2c1C(N)=O [Compound 4-11, 2-Aminocarbonylamino-6-(3-fluorophenyl)indole-3-carboxamide] |
| 100 | N#Cc1cccc(-c2ccc3c(C(N)=O)c(NC(N)=O)[nH]c3c2)c1 [Compound 4-15, 2-Aminocarbonylamino-6-(3-cyanophenyl)indole-3-carboxamide] |
| 100 | NC(=O)Nc1[nH]c2cc(-c3cccc([N+](=O)[O-])c3)ccc2c1C(N)=O [Compound 4-16, 2-Aminocarbonylamino-6-(3-nitrophenyl)indole-3-carboxamide] |
| 100 | CS(=O)(=O)Nc1cccc(-c2ccc3c(C(N)=O)c(NC(N)=O)[nH]c3c2)c1 [Compound 4-17, 2-Aminocarbonylamino-6-(3-methylsulfonylaminophenyl)indole-3-carboxamide] |
| 98 | NC(=O)Nc1[nH]c2cc(-c3ccsc3)ccc2c1C(N)=O [Compound 4-18, 2-Aminocarbonylamino-6-(thiophen-3-yl)indole-3-carboxamide] |
| 100 | NC(=O)Nc1[nH]c2cc(-c3ccco3)ccc2c1C(N)=O [Compound 4-19, 2-Aminocarbonylamino-6-(furan-2-yl)indole-3-carboxamide] |
| 100 | NC(=O)Nc1[nH]c2cc(-c3ccoc3)ccc2c1C(N)=O [Compound 4-22, 2-Aminocarbonylamino-6-(furan-3-yl)indole-3-carboxamide] |
| 100 | NC(=O)Nc1[nH]c2cc(-c3ccsc3Cl)ccc2c1C(N)=O [Compound 4-23, 2-Aminocarbonylamino-6-(2-chlorothiophen-3-yl)indole-3-carboxamide] |
| 99 | NC(=O)Nc1[nH]c2cc(-c3cnc4ccccc4c3)ccc2c1C(N)=O [Compound 4-36, 2-Aminocarbonylamino-6-(quinolin-3-yl)indole-3-carboxamide] |
| 100 | C=Cc1ccc2c(C(N)=O)c(NC(N)=O)[nH]c2c1 [Compound 4-38, 2-Aminocarbonylamino-6-vinylindole-3-carboxamide] |
| 99 | COC/C=C/c1ccc2c(C(N)=O)c(NC(N)=O)[nH]c2c1 [Compound 4-58, 2-Aminocarbonylamino-6-[(E)-3-methoxy-1-propenyl]indole-3-carboxamide] |
| 100 | NC(=O)Nc1[nH]c2cc(-c3ccc4[nH]ccc4c3)ccc2c1C(N)=O [Compound 4-65, 2-Aminocarbonylamino-6-(indol-5-yl)indole-3-carboxamide] |
| 94 | CCC/C=C/c1ccc2c(C(N)=O)c(NC(N)=O)[nH]c2c1 [Compound 4-67, 2-Aminocarbonylamino-6-[(E)-1-pentenyl]indole-3-carboxamide] |
| 95 | CN(C)c1ccc(-c2ccc3c(C(N)=O)c(NC(N)=O)[nH]c3c2)cc1 [Compound 4-78, 2-Aminocarbonylamino-6-(4-dimethylaminophenyl)indole-3-carboxamide] |
| 96 | Cc1c(-c2ccoc2)ccc2c(C(N)=O)c(NC(N)=O)[nH]c12 [Compound 4-81, 2-Aminocarbonylamino-6-(furan-3-yl)-7-methylindole-3-carboxamide] |
| 95 | NC(=O)Nc1[nH]c2cc(-c3ccc[nH]3)ccc2c1C(N)=O [Compound 5-1, 2-Aminocarbonylamino-6-(pyrrol-2-yl)indole-3-carboxamide] |

Source: patent US8193237B2, “Indole derivative having IκB kinase β inhibitory activity” (Santen Pharmaceutical Co., Ltd., priority 2007, dated 2012)
